Results as given in US12043600B2, “Microbiocidal compounds” (SYNGENTA CROP PROTECTION AG, priority 2018, dated 2024).
Like-named read-outs stand apart in the source and are kept apart here.

Tests used:
[1] = tested on: Puccinia recondita f. sp. tritici; test: Puccinia recondita f. sp. tritici/Wheat/Leaf Disc Preventative (Brown Rust); format: in vivo; conditions: foliar
[2] = tested on: Pyrenophora teres; test: Pyrenophora teres/Barley/Leaf Disc Preventative (Net Blotch); format: in vivo; conditions: foliar
From the text: Barley leaf segments cv. Hasso are placed on agar in a multiwell plate (24-well format) and sprayed with the formulated test compound diluted in water. The leaf segments are inoculated with a spore suspension of the fungus 2 days after application. […] The data are presented as the percentage of disease control of each compound for the biological tests against G. lagenarium (Example B3), P. recondita preventative (Example B13), P. teres (Example B15) and M. graminicola (Example B19) as described above. The testing rates of each biological test is specifically described in table C1 below.

[3] = tested on: Mycosphaerella graminicola (Septoria tritici); test: Mycosphaerella graminicola (Septoria tritici)/Liquid Culture (Septoria Blotch); format: cell-based; conditions: Zymoseptoria tritici; for inhibition of growth at 6 ppm: M. graminicola (B19), read-out: Disease control (%); for inhibition of growth at 20 ppm: liquid culture, compared to untreated control
Procedure, shortened: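 Conidia from cryogenic storage mixed into potato dextrose broth and added to microtiter wells already holding DMSO solutions of test compound. Activity expressed as percentage disease control.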

[4] = tested on: Phytophthora infestans; test: whole plant or invertebrate; format: in vivo; conditions: in Solanum lycopersicum, foliar, read-out: control of Phytophthora infestans
[5] = tested on: Phaeosphaeria nodorum (Septoria nodorum); test: Phaeosphaeria nodorum (Septoria nodorum)/Wheat/Leaf Disc Preventative (Glume Blotch); format: in vivo; conditions: Parastagonospora nodorum, foliar, wheat leaf disc preventative, compared to untreated control
Procedure, shortened: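 Wheat cv. Kanzler leaf discs on agar were sprayed with formulated compound diluted in water and inoculated with P. nodorum spores 2 days later. Discs kept at 20 °C, 75% rh, 12 h light/dark; percent disease control versus untreated scored 5–7 days after application.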

[6] = tested on: Magnaporthe grisea (Pyricularia oryzae); test: whole plant or invertebrate; format: in vivo; conditions: foliar, read-out: control of Magnaporthe grisea
[7] = tested on: Mycosphaerella arachidis (Cercospora arachidicola); test: Mycosphaerella arachidis (Cercospora arachidicola)/Liquid Culture (Early Leaf Spot); format: cell-based; conditions: liquid culture, compared to untreated control
Procedure, shortened: (§1)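 Conidia from cryogenic storage were mixed directly into potato dextrose broth, then added to microtiter wells already holding the test compound dissolved in DMSO. Fungal growth in liquid culture was then assessed.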

[8] = tested on: Plasmopara viticola; test: whole plant or invertebrate; format: in vivo; conditions: foliar, read-out: control of Plasmopara viticola
[9] = tested on: Blumeria graminis f. sp. tritici (Erysiphe graminis f. sp. tritici); test: Blumeria graminis f. sp. tritici/Wheat/Leaf Disc Preventative (Powdery Mildew on Wheat); format: in vivo; conditions: foliar, wheat leaf disc preventative, compared to untreated control
Procedure, shortened: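 Wheat cv. Kanzler leaf segments on agar sprayed with formulated compound, inoculated with powdery mildew 1 day later and held at 20° C, 60% rh (24 h dark, then 12 h light/12 h dark). Percent disease control versus untreated scored 6-8 days after application.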

[10] = tested on: Monographella nivalis (Microdochium nivale); test: Monographella nivalis (Microdochium nivale)/Liquid Culture (Foot Rot Cereals); format: cell-based; conditions: liquid culture, compared to untreated control
Procedure, shortened: as §1

[11] = tested on: Glomerella lagenarium (Colletotrichum lagenarium); test: Glomerella lagenarium (Colletotrichum lagenarium)/Liquid Culture (Anthracnose); format: cell-based; conditions: Colletotrichum orbiculare, liquid culture, compared to untreated control
[12] = tested on: Puccinia recondita f. sp. tritici; test: Puccinia recondita f. sp. tritici/Wheat/Leaf Disc Curative (Brown Rust); format: in vivo; conditions: foliar, wheat leaf disc curative, compared to untreated control
Method: Wheat leaf segments cv. Kanzler are placed on agar in multiwell plates (24-well format). The leaf segments are inoculated with a spore suspension of the fungus. Plates are stored in darkness at 19° C. and 75% rh. The formulated test compound diluted in water is applied 1 day after inoculation. The leaf segments are incubated at 19° C. and 75% rh under a light regime of 12 h light/12 h darkness in a climate cabinet and the activity of a compound is assessed as percent disease control compared to untreated when an appropriate level of disease damage appears in untreated check leaf segments (6-8 days after application).

[13] = tested on: Botryotinia fuckeliana (Botrytis cinerea); test: Botryotinia fuckeliana (Botrytis cinerea)/Liquid Culture (Gray Mould); format: cell-based; conditions: liquid culture, compared to untreated control
Method: Conidia of the fungus from cryogenic storage are directly mixed into nutrient broth (Vogels broth). After placing a (DMSO) solution of test compound into a microtiter plate (96-well format), the nutrient broth containing the fungal spores is added.

[14] = tested on: Phakopsora pachyrhizi; test: Phakopsora pachyrhizi/Soybean/Preventative (Soybean Rust); format: in vivo; conditions: foliar, 288 h, 200 ppm, soybean leaf disc preventative, compared to untreated control, read-out: control of Phakopsora pachyrhizi
[15] = P. recondita prev (B13), read-out: Disease control (%)
[16] = P. teres (B15), read-out: Disease control (%)
[17] = wheat leaf disc preventative, compared to untreated control, read-out: control of Puccinia recondita f. sp. tritici
[18] = barley leaf disc preventative, compared to untreated control, read-out: control of Pyrenophora teres

CO/C=C(\Oc1cc(-n2ccc(OC(C)C)n2)ccc1C)C(=O)OC [drawing 150]
100%: pest or weed control at 60 ppm [1, 15] | inhibition of growth at 6 ppm [3]
90%: pest or weed control at 200 ppm [2, 16]

CO/C=C(\Oc1cc(-n2ccc(C(F)(F)F)n2)ccc1C)C(=O)OC [drawing 152]
90%: pest or weed control at 200 ppm [2, 16]
100%: pest or weed control at 60 ppm [1, 15] | inhibition of growth at 6 ppm [3]

CO/C=C(\Oc1cc(-n2ccc(I)n2)ccc1C)C(=O)OC [Compound E-78, methyl (Z)-2-[5-(3-iodopyrazol-1-yl)-2-methyl-phenoxy]-3-methoxy-prop-2-enoate]
≥ 80%: pest or weed control at 200 ppm [4] | pest or weed control at 200 ppm [5] | pest or weed control at 200 ppm [6] | inhibition of growth at 20 ppm [7] | pest or weed control at 200 ppm [8] | pest or weed control at 200 ppm [1, 17] | pest or weed control at 200 ppm [9] | pest or weed control at 200 ppm [2, 18] | inhibition of growth at 20 ppm [10] | inhibition of growth at 20 ppm [11] | inhibition of growth at 20 ppm [3]
156 to 159 °C: melting point

CO/C=C(\Oc1cccc(-n2ncc(C3CC3)n2)c1)C(=O)OC [drawing 146]
0%: pest or weed control at 200 ppm [2, 16]
90%: inhibition of growth at 6 ppm [3]
100%: pest or weed control at 60 ppm [1, 15]

CO/C=C(\Oc1cc(-n2ccc(C(C)C)n2)c(C)cc1C)C(=O)OC [Compound E-25, methyl (Z)-2-[5-(3-isopropylpyrazol-1-yl)-2,4-dimethyl-phenoxy]-3-methoxy-prop-2-enoate]
96 to 98 °C: melting point
≥ 80%: pest or weed control at 200 ppm [12] | pest or weed control at 200 ppm [4] | inhibition of growth at 20 ppm [13] | pest or weed control at 200 ppm [6] | inhibition of growth at 20 ppm [7] | pest or weed control at 200 ppm [8] | pest or weed control at 200 ppm [1, 17] | pest or weed control at 200 ppm [9] | inhibition of growth at 20 ppm [10] | inhibition of growth at 20 ppm [11] | inhibition of growth at 20 ppm [3]

CO/C=C(\Oc1cc(-n2ncc(C3CC3)n2)ccc1C)C(=O)OC [drawing 147]
100%: pest or weed control at 60 ppm [1, 15] | inhibition of growth at 6 ppm [3]
50%: pest or weed control at 20 ppm ([2]; P. teres (B15), 20 ppm, read-out: Disease control (%))

CCOc1ccn(-c2ccc(C)c(O/C(=C\OC)C(=O)OC)c2)n1 [Compound E-94, methyl (Z)-2-[5-(3-ethoxypyrazol-1-yl)-2-methyl-phenoxy]-3-methoxy-prop-2-enoate]
94 to 96 °C: melting point
≥ 80%: pest or weed control at 200 ppm [12] | pest or weed control at 200 ppm [4] | inhibition of growth at 20 ppm [13] | pest or weed control at 200 ppm [5] | inhibition of growth at 20 ppm [7] | pest or weed control at 200 ppm [8] | pest or weed control at 200 ppm [1, 17] | pest or weed control at 200 ppm [9] | inhibition of growth at 20 ppm [10] | inhibition of growth at 20 ppm [11] | inhibition of growth at 20 ppm [3]

CO/C=C(\Oc1cc(-n2ccc(C#N)n2)ccc1C)C(=O)OC [Compound E-89, methyl (Z)-2-[5-(3-cyanopyrazol-1-yl)-2-methyl-phenoxy]-3-methoxy-prop-2-enoate]
≥ 50%: pest or weed control at 200 ppm [14]
≥ 80%: pest or weed control at 200 ppm [8] | pest or weed control at 200 ppm [1, 17] | pest or weed control at 200 ppm [2, 18] | inhibition of growth at 20 ppm [10] | inhibition of growth at 20 ppm [3]

CCc1ccc(-n2ccc(C(F)(F)F)n2)cc1O/C(=C\OC)C(=O)OC [Compound E-109, methyl (Z)-2-[2-ethyl-5-[3-(trifluoromethyl)pyrazol-1-yl]phenoxy]-3-methoxy-prop-2-enoate]
≥ 80%: inhibition of growth at 20 ppm [7] | pest or weed control at 200 ppm [8] | pest or weed control at 200 ppm [1, 17] | pest or weed control at 200 ppm [9] | pest or weed control at 200 ppm [2, 18] | inhibition of growth at 20 ppm [10] | inhibition of growth at 20 ppm [3]
135 to 137 °C: melting point

CO/C=C(\Oc1cc(-n2ccc(C(C)C)n2)ccc1C)C(=O)OC [drawing 149]
100%: pest or weed control at 60 ppm [1, 15] | inhibition of growth at 6 ppm [3]
0%: pest or weed control at 200 ppm [2, 16]

CO/C=C(\Oc1cccc(-n2cccc2)c1)C(=O)OC [drawing 154, reference compound]
20%: inhibition of growth at 6 ppm [3]
0%: pest or weed control at 200 ppm [1, 15] | pest or weed control at 200 ppm [2, 16]

CO/C=C(\Oc1cc(-n2cc(Cl)c(OC(C)C)n2)ccc1C)C(=O)OC [Compound E-12, methyl (Z)-2-[5-(4-chloro-3-isopropoxy-pyrazol-1-yl)-2-methyl-phenoxy]-3-methoxy-prop-2-enoate]
104 to 107 °C: melting point
≥ 80%: pest or weed control at 200 ppm [4] | pest or weed control at 200 ppm [6] | inhibition of growth at 20 ppm [7] | pest or weed control at 200 ppm [8] | pest or weed control at 200 ppm [1, 17] | pest or weed control at 200 ppm [2, 18] | inhibition of growth at 20 ppm [10] | inhibition of growth at 20 ppm [11] | inhibition of growth at 20 ppm [3]

CO/C=C(\Oc1cc(-n2ccc(OC(F)F)n2)ccc1C)C(=O)OC [Compound E-66, methyl (Z)-2-[5-[3-(difluoromethoxy)pyrazol-1-yl]-2-methyl-phenoxy]-3-methoxy-prop-2-enoate]
≥ 80%: pest or weed control at 200 ppm [12] | inhibition of growth at 20 ppm [13] | pest or weed control at 200 ppm [5] | inhibition of growth at 20 ppm [7] | pest or weed control at 200 ppm [8] | pest or weed control at 200 ppm [1, 17] | pest or weed control at 200 ppm [9] | inhibition of growth at 20 ppm [10] | inhibition of growth at 20 ppm [11] | inhibition of growth at 20 ppm [3]
123 to 126 °C: melting point

CO/C=C(\Oc1cccc(-n2ccc(C(F)(F)F)n2)c1)C(=O)OC [drawing 153]
50%: pest or weed control at 200 ppm [2, 16]
70%: inhibition of growth at 6 ppm [3]
90%: pest or weed control at 200 ppm [1, 15]

CC#Cc1ccn(-c2ccc(C)c(O/C(=C\OC)C(=O)OC)c2)n1 [Compound E-2, methyl (Z)-3-methoxy-2-[2-methyl-5-(3-prop-1-ynylpyrazol-1-yl)phenoxy]prop-2-enoate]
175 to 179 °C: melting point
≥ 50%: pest or weed control at 200 ppm [14]
≥ 80%: pest or weed control at 200 ppm [5] | pest or weed control at 200 ppm [6] | inhibition of growth at 20 ppm [7] | pest or weed control at 200 ppm [8] | pest or weed control at 200 ppm [1, 17] | pest or weed control at 200 ppm [2, 18] | inhibition of growth at 20 ppm [10] | inhibition of growth at 20 ppm [3]

CO/C=C(\Oc1cc(-n2ccc(C(F)(F)F)n2)c(F)cc1C)C(=O)OC [drawing 148]
90%: pest or weed control at 200 ppm [2, 16]
100%: pest or weed control at 60 ppm [1, 15] | inhibition of growth at 6 ppm [3]

CO/C=C(\Oc1cc(-n2ccc(C(F)(F)F)n2)ccc1C1CC1)C(=O)OC [Compound E-108, methyl (Z)-2-[2-cyclopropyl-5-[3-(trifluoromethyl)pyrazol-1-yl]phenoxy]-3-methoxy-prop-2-enoate]
130 to 132 °C: melting point
≥ 80%: inhibition of growth at 20 ppm [7] | pest or weed control at 200 ppm [1, 17] | pest or weed control at 200 ppm [9] | pest or weed control at 200 ppm [2, 18] | inhibition of growth at 20 ppm [10] | inhibition of growth at 20 ppm [3]
